Assay results from US20220282271A1, “HERBICIDE RESISTANT PLANTS AND METHODS OF MAKING AND USING” (OFFICE OF INNOVATION ADVANCEMENT AND COMMERCIALIZATION, priority 2019, published 2022).

How the values were obtained:
[1] = molecular target: T1, recombinant wild-type E. indica PPO1 (Eleusine indica, UniProt A0A6G5XNV7); test: In vitro PPO enzyme activity inhibition, wild-type PPO1; type: biochemical
T1 sequence (A0A6G5XNV7 1-529): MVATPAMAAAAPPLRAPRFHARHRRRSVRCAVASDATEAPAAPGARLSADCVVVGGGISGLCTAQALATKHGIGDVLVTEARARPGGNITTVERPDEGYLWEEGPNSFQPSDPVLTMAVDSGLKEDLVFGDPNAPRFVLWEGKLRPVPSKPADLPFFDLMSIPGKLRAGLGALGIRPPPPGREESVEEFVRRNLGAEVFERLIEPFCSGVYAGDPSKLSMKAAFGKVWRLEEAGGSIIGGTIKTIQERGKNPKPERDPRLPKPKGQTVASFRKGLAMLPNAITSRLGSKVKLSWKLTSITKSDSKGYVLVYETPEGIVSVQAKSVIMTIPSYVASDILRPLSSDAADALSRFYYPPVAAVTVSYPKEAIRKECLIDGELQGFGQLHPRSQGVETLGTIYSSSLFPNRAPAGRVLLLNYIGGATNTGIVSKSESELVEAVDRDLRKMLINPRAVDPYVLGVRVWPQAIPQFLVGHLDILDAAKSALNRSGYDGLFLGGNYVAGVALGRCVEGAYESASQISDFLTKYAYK
Text: Effects of A212T substitution were studied using the E. indica backbone. The wild-type E. indica PPO1 and the E. indica PPO1 A212T variants were synthesized de novo and subcloned into pRSetB plasmid (Invitrogen, Carlsbad, Calif.). The complete description of expression and purification of E. indica PPO1 and E. indica PPO1 A212T variant proteins were referenced to the method described for PPO2 by Rangani et al. (2019, Frontiers in Plant Sci., 10:568). […] Oxadiazon, sulfentrazone, saflufenacil and lactofen are from the class of oxadiazole, triazolinone, pyrimidinedione, and diphenyl ether, respectively. Flumioxazin and trifludimoxazin are from the same chemical family, N-phenylphthalimide. […] The assay was replicated twice.

[2] = tested on: PPO1 from S E. indica biotype (Ala212) expressed in hemG mutant E. coli strain SASX38; test: hemG mutant E. coli SASX38 complementation assay, S PPO1; type: cell-based, Eleusine indica; settings: LB medium; 0, 10, 50, 100, 200 μM tested; 37° C., 20 h
Text: (§1) Two putative PPO-inhibitor resistant (R-) and susceptible (S-) plasmids were created to test the role of the chloroplast-targeted PPO1 in the E. indica biotypes. The PPO1 from R1, R2 and S E. indica biotypes were cloned into the pBAD-TOPO expression vector using the pBAD TOPO™ TA Expression kit (Invitrogen, Carlsbad, Calif.), respectively. The PPO1 product was amplified using the same PCR primers and PCR reaction system as cDNA sequencing, so that the PPO1 translation began at the ATG start codon. Three different pBAD-TOPO PPO1 constructs were created and sequenced to confirm they were identical with the PPO1 gene from R1, R2 and S E. indica biotypes and there were no other nucleotide polymorphisms in the cloning experiment. R- and S-PPO1 plasmids were used to transform a hemG mutant Escherichia coli strain SASX38 by electroporation. The SASX38 mutant strain was grown on LB medium supplemented with 10 μg/mL hematin. Expression of the PPO1 in the transformed colonies of the SASX38 mutant strain were induced on LB medium with 2% L-arabinose. […]

[3] = tested on: PPO1 from R1 and R2 E. indica biotypes (A212T) expressed in hemG mutant E. coli strain SASX38; test: hemG mutant E. coli SASX38 complementation assay, R1 and R2 PPO1; type: cell-based, Eleusine indica; settings: R1 and R2 alleles; LB medium; 0, 10, 50, 100, 200 μM tested; 37° C., 20 h
Text: as §1

Senna obtusifolia = test: Weed control screen: sicklepod; type: in vivo; settings: 1.0 lb ai/a, applied approximately 3 weeks after emergence, relative to non-treated
Protocol: (§2) Herbicides were applied at a spray volume of 280 L/ha with no adjuvant added to any herbicide mixture. Weed control was rated on a 0 to 100 percent phytoxicity scale with 0 being no plant injury/phytotoxicity and 100 being complete plant dessication. Twenty-one weeds were evaluated for response to herbicides (Table 3). The weeds selected were a mixture of weeds common in agronomic and horticultural crops. Herbicide was applied to all species approximately 3 weeks after emergence. Plant phytotoxicity rated as percent control relative to the non-treated.

Crotalaria spectabilis = test: Weed control screen: showy crotalaria; type: in vivo; settings: 1.0 lb ai/a, applied approximately 3 weeks after emergence, relative to non-treated
Protocol: as §2

Physalis angulata = test: Weed control screen: cutleaf groundcherry; type: in vivo; settings: 1.0 lb ai/a, applied approximately 3 weeks after emergence, relative to non-treated
Protocol: as §2

Ipomoea lacunosa = test: Weed control screen: pitted morningglory; type: in vivo; settings: 1.0 lb ai/a, applied approximately 3 weeks after emergence, relative to non-treated
Protocol: as §2

Sida spinosa = test: Weed control screen: prickly sida; type: in vivo; settings: 1.0 lb ai/a, applied approximately 3 weeks after emergence, relative to non-treated
Protocol: as §2

Ipomoea quamoclit = test: Weed control screen: cypressvine morningglory; type: in vivo; settings: 1.0 lb ai/a, applied approximately 3 weeks after emergence, relative to non-treated
Protocol: as §2

Ipomoea hederacea = test: Weed control screen: entireleaf morningglory; type: in vivo; settings: 1.0 lb ai/a, applied approximately 3 weeks after emergence, relative to non-treated
Protocol: as §2

Jaquemontia tamnifolia = test: Weed control screen: smallflower morningglory; type: in vivo; settings: 1.0 lb ai/a, applied approximately 3 weeks after emergence, relative to non-treated
Protocol: as §2

Solanum carolinense = test: Weed control screen: Carolina horsenettle; type: in vivo; settings: 1.0 lb ai/a, applied approximately 3 weeks after emergence, relative to non-treated
Protocol: as §2

Kyllinga squamulata = test: Weed control screen: cock's comb kyllinga; type: in vivo; settings: 1.0 lb ai/a, applied approximately 3 weeks after emergence, relative to non-treated
Protocol: as §2

Sorghum halapense = test: Weed control screen: johnsongrass; type: in vivo; settings: 1.0 lb ai/a, applied approximately 3 weeks after emergence, relative to non-treated
Protocol: as §2

Amaranthus palmeri = test: Weed control screen: glyphosate resistant palmer amaranth; type: in vivo; settings: 1.0 lb ai/a, applied approximately 3 weeks after emergence, relative to non-treated
Protocol: as §2

[4] = tested on: Twenty-one weeds common in agronomic and horticultural crops; test: Weed control screen: summary over the twenty-one weeds; type: in vivo
Protocol: as §2

[5] = highest herbicide concentration 10^−5 M

CC(C)Oc1cc(-n2nc(C(C)(C)C)oc2=O)c(Cl)cc1Cl [Oxadiazon, oxadiazon]
IC50 [1]: 24.7 nM
Wild-type E. indica PPO1 % inhibition [1, 5]: >90%
inhibition at 10 µM [1, 5]: > 90%
Concentration in medium that inhibited the growth of the transformed E. coli [2]: 50 µM
Concentration at which the transformed E. coli were able to grow [3]: up to 200 μM
Percent control (0 to 100) (Senna obtusifolia): 90%
Percent control (0 to 100) (Crotalaria spectabilis): 99%
Percent control (0 to 100) (Physalis angulata): 70%
Percent control (0 to 100) (Ipomoea lacunosa): 100%
Percent control (0 to 100) (Sida spinosa): 90%
Percent control (0 to 100) (Ipomoea quamoclit): 100%
Percent control (0 to 100) (Ipomoea hederacea): 100%
Percent control (0 to 100) (Jaquemontia tamnifolia): 90%
Percent control (0 to 100) (Solanum carolinense): 60%
Percent control (0 to 100) (Kyllinga squamulata): 75%
Percent control (0 to 100) (Sorghum halapense): 100%
Percent control (0 to 100) (Amaranthus palmeri): 75%
Number of the 21 weeds evaluated controlled at a level greater than or equal to 90% ([4]; 1.0 lb ai/a): 13 weeds
Number of the 21 weeds controlled greater than or equivalent to glyphosate ([4]; 1.0 lb ai/a each): 18 weeds
